Measured values as given in ChEMBL document CHEMBL5584348, “Exploring Degradation of Intrinsically Disordered Protein Yes-Associated Protein Induced by Proteolysis TArgeting Chimeras” (J Med Chem, 2024).
Calls of active or inactive are those of the source. The calls are words filed in the database; no cut-off is given here.

Key:
Huh-7 [1] = experiment: Antitumor activity against human Huh-7 cells xenografted in immunodeficient male NSG mouse assessed as reduction in CYR61 level at 35 mg/kg, ip administered every 3 days for 24 days by Western blot analysis; type: functional, organism-based; settings: time 24.0 day
Huh-7 [2] = experiment: Antitumor activity against human Huh-7 cells xenografted in immunodeficient male NSG mouse assessed as inhibition of tumor growth at 35 mg/kg, ip administered for 3 days; type: functional, organism-based; settings: time 3.0 day
[3] = Half life in Sprague-Dawley rat at 35 mg/kg, ip measured upto 24 hrs by LC-MS/MS analysis; type: ADME, organism-based; settings: in vivo
[4] = biological target: T1, von Hippel-Lindau disease tumor suppressor/Transcriptional coactivator YAP1 (Homo sapiens, UniProt P40337+P46937); experiment: PROTAC activity at YAP/VHL in human Huh-7 cells assessed as induction of YAP degradation at 20 uM incubated at 12 hrs by Western blot analysis; type: cell-based
T1 sequence (P40337 whole entry, looked up): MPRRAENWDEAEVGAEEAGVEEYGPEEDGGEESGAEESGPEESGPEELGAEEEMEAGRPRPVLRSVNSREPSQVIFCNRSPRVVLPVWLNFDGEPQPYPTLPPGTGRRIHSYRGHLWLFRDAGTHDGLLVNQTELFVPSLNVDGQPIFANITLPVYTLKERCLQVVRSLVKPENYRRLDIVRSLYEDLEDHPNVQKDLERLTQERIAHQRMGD
T1 sequence (P46937 whole entry, looked up): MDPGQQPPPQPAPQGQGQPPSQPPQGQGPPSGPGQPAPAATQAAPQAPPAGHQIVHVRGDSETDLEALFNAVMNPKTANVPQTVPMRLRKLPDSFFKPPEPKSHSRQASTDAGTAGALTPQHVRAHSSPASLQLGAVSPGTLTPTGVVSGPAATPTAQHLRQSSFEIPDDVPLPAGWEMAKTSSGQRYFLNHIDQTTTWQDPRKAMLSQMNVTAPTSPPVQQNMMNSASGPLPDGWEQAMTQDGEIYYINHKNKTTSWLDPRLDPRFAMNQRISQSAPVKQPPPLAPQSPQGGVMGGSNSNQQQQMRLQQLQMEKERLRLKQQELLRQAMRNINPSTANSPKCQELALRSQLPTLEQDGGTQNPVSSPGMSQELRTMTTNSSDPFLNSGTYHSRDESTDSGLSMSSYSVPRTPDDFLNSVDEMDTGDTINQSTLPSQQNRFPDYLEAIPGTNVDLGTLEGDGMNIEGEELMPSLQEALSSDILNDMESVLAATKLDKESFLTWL

Huh-7 [5] = experiment: Antitumor activity against human Huh-7 cells xenografted in immunodeficient male NSG mouse assessed as reduction in CTGF level at 35 mg/kg, ip administered every 3 days for 24 days by Western blot analysis; type: functional, organism-based; settings: time 24.0 day
Huh-7 [6] = experiment: Antiproliferative activity against human Huh-7 cells overexpressing YAP assessed as suppression of cell proliferation incubated for 4 days by CCK-8 assay; type: functional, cell-based; settings: time 4.0 day
[7] = biological target: T1, von Hippel-Lindau disease tumor suppressor/Transcriptional coactivator YAP1; experiment: PROTAC activity at YAP/VHL in human Huh-7 cells assessed as induction of YAP degradation at 20 uM measured for 24 hrs in presence of MG-132 by Western blot analysis; type: cell-based
NCI-H226 [8] = experiment: Antiproliferative activity against human NCI-H226 cells assessed as cell killing at 10 uM incubated for 3 days by CCK-8 assay; type: functional, cell-based; settings: time 3.0 day
NCI-H226 [9] = experiment: Antiproliferative activity against NF2 deficient- human NCI-H226 cells assessed as cell growth inhibition incubated for 4 days by CCK-8 assay; type: functional, cell-based; settings: NCI-H226, 96 h
[10] = biological target: T1, von Hippel-Lindau disease tumor suppressor/Transcriptional coactivator YAP1; experiment: PROTAC activity at YAP/VHL in human NCI-H226 cells assessed as reduction in CTGF expression at 5 uM incubated for 48 hrs by Western blot analysis; type: cell-based
[11] = biological target: T1, von Hippel-Lindau disease tumor suppressor/Transcriptional coactivator YAP1; experiment: PROTAC activity at YAP/VHL in human Huh-7 cells assessed as induction of YAP degradation at 20 uM measured for 24 hrs by Western blot analysis relative to control; type: cell-based
[12] = Toxicity in immunodeficient male NSG mouse xenografted with human Huh-7 cells assessed as change in AST level in liver at 35 mg/kg, ip administered every 3 days for 24 days; type: organism-based; settings: in vivo, 576 h, time 24 day
[13] = biological target: T1, von Hippel-Lindau disease tumor suppressor/Transcriptional coactivator YAP1; experiment: PROTAC activity at YAP/VHL in human NCI-H226 cells assessed as induction of YAP degradation at 20 uM incubated at 48 hrs by Western blot analysis; type: cell-based
AML12 = experiment: Antiproliferative activity against mouse AML12 cells assessed as suppression of cell proliferation incubated for 4 days by CCK-8 assay; type: toxicity, cell-based; settings: aml12, 96 h, time 4 day
[14] = MRT (0 to infinity) in Sprague-Dawley rat at 35 mg/kg, ip measured upto 24 hrs by LC-MS/MS analysis; type: ADME, organism-based; settings: in vivo
[15] = biological target: T1, von Hippel-Lindau disease tumor suppressor/Transcriptional coactivator YAP1; experiment: PROTAC activity at YAP/VHL in human Huh-7 cells assessed as induction of YAP degradation at 20 uM measured for 24 hrs in presence of 4-(3,4-dimethoxyphenyl)-2-phenyl-5,7-dihydro-6H-benzo[b]pyrido[2,3-d]azepin-6-one by Western blot analysis; type: cell-based
Huh-7 [16] = experiment: Antitumor activity against human Huh-7 cells xenografted in immunodeficient male NSG mouse assessed as suppression of YAP expression at 35 mg/kg, ip administered every 3 days for 24 days; type: functional, organism-based; settings: time 24.0 day
[17] = biological target: T1, von Hippel-Lindau disease tumor suppressor/Transcriptional coactivator YAP1; experiment: PROTAC activity at YAP/VHL in human Huh-7 cells assessed as induction of YAP degradation at 20 uM incubated at 24 hrs by Western blot analysis; type: cell-based
[18] = AUC (0 to infinity) in Sprague-Dawley rat at 35 mg/kg, ip measured upto 24 hrs by LC-MS/MS analysis; type: ADME, organism-based; settings: in vivo
[19] = biological target: T1, von Hippel-Lindau disease tumor suppressor/Transcriptional coactivator YAP1; experiment: PROTAC activity at YAP/VHL in human NCI-H226 cells assessed as downregulation of YAP level at 20 uM incubated at 24 hrs by Western blot analysis; type: cell-based
[20] = biological target: T1, von Hippel-Lindau disease tumor suppressor/Transcriptional coactivator YAP1; experiment: PROTAC activity at YAP/VHL in human Huh-7 cells assessed as suppression of CTGF expression at 10 to 20 uM measured for 24 hrs by Western blot analysis relative to control; type: cell-based; settings: dose 10-20 µM
[21] = biological target: T1, von Hippel-Lindau disease tumor suppressor/Transcriptional coactivator YAP1; experiment: PROTAC activity at YAP/VHL in human Huh-7 cells assessed as induction of YAP degradation by measuring half life at 20 uM incubated at 48 hrs by Western blot analysis; type: cell-based
[22] = biological target: Transcriptional coactivator YAP1 (Homo sapiens) (UniProt P46937); experiment: Inhibition of YAP nuclear localization in human Huh-7 cells assessed as decrease in mean YAP intensity incubated for 12 hrs by immunofluorescence based microscopic analysis; type: cell-based; settings: dose <= 20.0 µM
Sequence of Transcriptional coactivator YAP1 (Homo sapiens) (P46937 whole entry): as the sequence (P46937 whole entry, looked up) above

[23] = biological target: T1, von Hippel-Lindau disease tumor suppressor/Transcriptional coactivator YAP1; experiment: PROTAC activity at YAP/VHL in human Huh-7 cells assessed as induction of YAP degradation at 10 uM measured for 24 hrs by Western blot analysis relative to control; type: cell-based
[24] = Toxicity in immunodeficient male NSG mouse xenografted with human Huh-7 cells assessed as change in total bilirubin level in liver at 35 mg/kg, ip administered every 3 days for 24 days; type: organism-based; settings: in vivo, 576 h, time 24 day
[25] = biological target: T1, von Hippel-Lindau disease tumor suppressor/Transcriptional coactivator YAP1; experiment: PROTAC activity at YAP/VHL in human Huh-7 cells assessed as downregulation of YAP level at 20 uM incubated at 24 hrs by Western blot analysis; type: cell-based
[26] = biological target: T1, von Hippel-Lindau disease tumor suppressor/Transcriptional coactivator YAP1; experiment: PROTAC activity at YAP/VHL in human Huh-7 cells assessed as induction of YAP degradation at 20 uM incubated at 48 hrs by Western blot analysis; type: cell-based
[27] = biological target: Transcriptional coactivator YAP1 (Homo sapiens) (UniProt P46937); experiment: Inhibition of YAP nuclear localization in human Huh-7 cells assessed as decrease in integrated YAP intensity incubated for 12 hrs by immunofluorescence based microscopic analysis; type: cell-based; settings: dose <= 20.0 µM
[28] = biological target: T1, von Hippel-Lindau disease tumor suppressor/Transcriptional coactivator YAP1; experiment: PROTAC activity at YAP/VHL in human Huh-7 cells assessed as reduction on CTGF expression incubated for 48 hrs by Western blot analysis; type: cell-based; settings: dose 2.5-20 µM
[29] = biological target: T1, von Hippel-Lindau disease tumor suppressor/Transcriptional coactivator YAP1; experiment: PROTAC activity at YAP/VHL in human Huh-7 cells assessed as induction of YAP degradation at 20 uM measured for 24 hrs in presence of MLN-4924 by Western blot analysis; type: cell-based
[30] = biological target: T1, von Hippel-Lindau disease tumor suppressor/Transcriptional coactivator YAP1; experiment: PROTAC activity at YAP/VHL in human Huh-7 cells assessed as induction of YAP degradation at 20 uM pretreated with VHL ligand 2 for 2 hrs followed by compound addition and measured after 24 hrs by Western blot analysis; type: cell-based
[31] = Toxicity in immunodeficient male NSG mouse xenografted with human Huh-7 cells assessed as change in triglyceride content in liver at 35 mg/kg, ip administered every 3 days for 24 days; type: organism-based; settings: in vivo, 576 h, time 24 day
NCI-H226 [32] = experiment: Antiproliferative activity against NF2 deficient- human NCI-H226 cells assessed as maximum cell growth inhibition incubated for 4 days by CCK-8 assay relative to control; type: functional; settings: time 4 day

COc1cc(-c2cc(-c3ccccc3)nc3c2CC(=O)Nc2ccccc2-3)ccc1OCCOCCOCCC(=O)N[C@H](C(=O)N1C[C@H](O)C[C@H]1C(=O)N[C@@H](C)c1ccc(-c2scnc2C)cc1)C(C)(C)C
Activity (Huh-7 [1]): Active
Activity (Huh-7 [2]): Active
half-life [3]: 13.3 h
Activity [4]: 10%
Activity (Huh-7 [5]): Active
Activity (Huh-7 [6]): Active
Activity [7]: Active
Activity (NCI-H226 [8]): inactive
IC50 (NCI-H226 [9]): 15.3 µM
Activity [10]: Active
Activity [11]: 78%
Activity [12]: Non-Toxic
Activity [13]: 97%
Activity (AML12): Non-Toxic
MRT inf [14]: 19.9 h
Activity [15]: Active
Activity (Huh-7 [16]): Active
Activity [17]: 65%
AUC(0-inf) [18]: 2690 ng·h/mL
Activity [19]: Active
Activity [20]: Active
T1/2 [21]: 16.5 h
inhibition [22]: Dose-Dependent Effect
Activity [23]: 50%
Activity [24]: Non-Toxic
Activity [25]: Active
Activity [26]: 98%
inhibition [27]: Dose-Dependent Effect
Activity [28]: Dose-Dependent Effect
Activity [29]: Active
Activity [30]: Active
Activity [31]: Non-Toxic
inhibition (INH) (NCI-H226 [32]): 60%
